Data from patent publication US11759462B2, “Spirocyclic compounds as tryptophan hydroxylase inhibitors” (priority 2013, dated 2023).
pIC50: −log10 of the molar value. Where two headings read alike, the source gives them in different places.

Biological target: T1, Recombinant human TPH1 (MBP tagged) (Homo sapiens, UniProt P17752)
T1 construct: cloning full length human TPH1 cDNA in to a bacterial pMAL-c5E expression vector; made in house; host or cells: E. coli BL21 (DE3)
T1 sequence (P17752 1-444): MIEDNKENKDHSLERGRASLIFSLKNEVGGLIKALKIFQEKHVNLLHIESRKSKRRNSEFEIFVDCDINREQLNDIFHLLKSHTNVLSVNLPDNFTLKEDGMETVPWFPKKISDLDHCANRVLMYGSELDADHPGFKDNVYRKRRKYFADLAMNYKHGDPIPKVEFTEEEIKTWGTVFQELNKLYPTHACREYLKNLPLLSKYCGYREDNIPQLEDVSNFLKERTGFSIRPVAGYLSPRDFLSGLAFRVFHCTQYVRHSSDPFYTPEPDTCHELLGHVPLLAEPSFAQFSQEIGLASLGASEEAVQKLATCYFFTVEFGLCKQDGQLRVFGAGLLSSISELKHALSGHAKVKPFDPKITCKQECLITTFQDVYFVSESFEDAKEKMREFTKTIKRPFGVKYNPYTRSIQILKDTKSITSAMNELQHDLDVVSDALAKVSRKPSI
Test: TPH1 in vitro inhibition assay (kinetic fluorescence)
Assay type: biochemical
Method in brief: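 Final mix: 15 nM MBP-TPH1, 30 μM Trp, 36 μM 6-methyltetrahydropterin, 25 μM ferrous ammonium sulfate, 50 mM MES pH 7.1, 1% DMSO, room temperature.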

[1] = TPH1 Range (TPH1 inhibition IC50)
[2] = read-out: TPH1 Range (TPH1 inhibition IC50)

Row | Structure (SMILES) | pIC50 [1] | pIC50 [2]
1 | CCOc1ccc(-c2cc(Cl)ccc2[C@@H](Oc2cc(N3CCC4(CC3)CN[C@H](C(=O)O)C4)nc(N)n2)C(F)(F)F)cc1Cl [Example 34ai, (S)-8-(2-amino-6-((R)-1-(3′,5-dichloro-4′-ethoxy-[1,1′-biphenyl]-2-yl)-2,2,2-trifluoroethoxy)pyrimidin-4-yl)-2,8-diazaspiro[4.5]decane-3-carboxylic acid] | 6.52 to 7.30 | –
2 | Cc1ccc(-c2cc(Cl)ccc2[C@@H](Oc2cc(N3CCC4(CC3)CN[C@H](C(=O)O)C4)nc(N)n2)C(F)(F)F)cc1Cl [Example 34aj, (S)-8-(2-amino-6-((R)-1-(3′,5-dichloro-4′-methyl-[1,1′-biphenyl]-2-yl)-2,2,2-trifluoroethoxy)pyrimidin-4-yl)-2,8-diazaspiro[4.5]decane-3-carboxylic acid] | – | 6.52 to 7.30
3 | CC(C)Oc1ccc(-c2cc(Cl)ccc2[C@@H](Oc2cc(N3CCC4(CC3)CN[C@H](C(=O)O)C4)nc(N)n2)C(F)(F)F)cc1Cl [Example 34ak, (S)-8-(2-amino-6-((R)-1-(3′,5-dichloro-4′-isopropoxy-[1,1′-biphenyl]-2-yl)-2,2,2-trifluoroethoxy)pyrimidin-4-yl)-2,8-diazaspiro[4.5]decane-3-carboxylic acid] | – | 6.52 to 7.30
4 | CC(C)Oc1ccc(-c2cc(Cl)ccc2[C@@H](Oc2cc(N3CCC4(CC3)CN[C@H](C(=O)O)C4)nc(N)n2)C(F)(F)F)cc1F [Example 34al, (S)-8-(2-amino-6-((R)-1-(5-chloro-3′-fluoro-4′-isopropoxy-[1,1′-biphenyl]-2-yl)-2,2,2-trifluoroethoxy)pyrimidin-4-yl)-2,8-diazaspiro[4.5]decane-3-carboxylic acid] | – | 5.00 to 5.52
5 | Nc1nc(O[C@H](c2ccc(Cl)cc2-c2ccc(Cl)c(C(F)(F)F)c2)C(F)(F)F)cc(N2CCC3(CC2)CN[C@H](C(=O)O)C3)n1 [Example 34am, (S)-8-(2-amino-6-((R)-1-(4′,5-dichloro-3′-(trifluoromethyl)-[1,1′-biphenyl]-2-yl)-2,2,2-trifluoroethoxy)pyrimidin-4-yl)-2,8-diazaspiro[4.5]decane-3-carboxylic acid] | – | 6.52 to 7.30
6 | Nc1nc(O[C@H](c2ccc(Cl)cc2-c2cc(F)cc(Cl)c2)C(F)(F)F)cc(N2CCC3(CC2)CN[C@H](C(=O)O)C3)n1 [Example 34an, (S)-8-(2-amino-6-((R)-1-(3′,5-dichloro-5′-fluoro-[1,1′-biphenyl]-2-yl)-2,2,2-trifluoroethoxy)pyrimidin-4-yl)-2,8-diazaspiro[4.5]decane-3-carboxylic acid] | > 7.30 | –
7 | CC(C)(C)c1cccc(-c2cc(Cl)ccc2[C@@H](Oc2cc(N3CCC4(CC3)CN[C@H](C(=O)O)C4)nc(N)n2)C(F)(F)F)c1 [Example 34ao, (S)-8-(2-amino-6-((R)-1-(3′-(tert-butyl)-5-chloro-[1,1′-biphenyl]-2-yl)-2,2,2-trifluoroethoxy)pyrimidin-4-yl)-2,8-diazaspiro[4.5]decane-3-carboxylic acid] | > 7.30 | –
8 | Nc1nc(O[C@H](c2ccc(Cl)cc2-c2cc(Cl)cc(C(F)(F)F)c2)C(F)(F)F)cc(N2CCC3(CC2)CN[C@H](C(=O)O)C3)n1 [Example 34ap, (S)-8-(2-amino-6-((R)-1-(3′,5-dichloro-5′-(trifluoromethyl)-[1,1′-biphenyl]-2-yl)-2,2,2-trifluoroethoxy)pyrimidin-4-yl)-2,8-diazaspiro[4.5]decane-3-carboxylic acid] | – | 6.52 to 7.30
9 | Nc1nc(O[C@H](c2ccc(Cl)cc2-c2cc(F)cc(C(F)(F)F)c2)C(F)(F)F)cc(N2CCC3(CC2)CN[C@H](C(=O)O)C3)n1 [Example 34aq, (S)-8-(2-amino-6-((R)-1-(5-chloro-3′-fluoro-5′-(trifluoromethyl)-[1,1′-biphenyl]-2-yl)-2,2,2-trifluoroethoxy)pyrimidin-4-yl)-2,8-diazaspiro[4.5]decane-3-carboxylic acid] | – | > 7.30
10 | Nc1nc(O[C@H](c2ccc(Cl)cc2-c2cccc(F)c2)C(F)(F)F)cc(N2CCC3(CC2)CN[C@H](C(=O)O)C3)n1 [Example 34as, (S)-8-(2-amino-6-((R)-1-(5-chloro-3′-fluoro-[1,1′-biphenyl]-2-yl)-2,2,2-trifluoroethoxy)pyrimidin-4-yl)-2,8-diazaspiro[4.5]decane-3-carboxylic acid] | > 7.30 | –
11 | Cc1cc(-c2cc(Cl)ccc2[C@@H](Oc2cc(N3CCC4(CC3)CN[C@H](C(=O)O)C4)nc(N)n2)C(F)(F)F)ccc1Cl [Example 34at, (S)-8-(2-amino-6-((R)-1-(4′,5-dichloro-3′-methyl-[1,1′-biphenyl]-2-yl)-2,2,2-trifluoroethoxy)pyrimidin-4-yl)-2,8-diazaspiro[4.5]decane-3-carboxylic acid] | 6.52 to 7.30 | –
12 | Nc1nc(O[C@H](c2ccc(Cl)cc2-c2cc(F)cc(F)c2)C(F)(F)F)cc(N2CCC3(CC2)CN[C@H](C(=O)O)C3)n1 [Example 34au, (S)-8-(2-amino-6-((R)-1-(5-chloro-3′,5′-difluoro-[1,1′-biphenyl]-2-yl)-2,2,2-trifluoroethoxy)pyrimidin-4-yl)-2,8-diazaspiro[4.5]decane-3-carboxylic acid] | > 7.30 | –
13 | Nc1nc(O[C@H](c2ccc(Cl)cc2-c2ccc(F)c(Cl)c2)C(F)(F)F)cc(N2CCC3(CC2)CN[C@H](C(=O)O)C3)n1 [Example 34av, (S)-8-(2-amino-6-((R)-1-(3′,5-dichloro-4′-fluoro-[1,1′-biphenyl]-2-yl)-2,2,2-trifluoroethoxy)pyrimidin-4-yl)-2,8-diazaspiro[4.5]decane-3-carboxylic acid] | – | > 7.30
14 | Nc1nc(O[C@H](c2ccc(Cl)cc2-c2ccc(F)c(F)c2)C(F)(F)F)cc(N2CCC3(CC2)CN[C@H](C(=O)O)C3)n1 [Example 34aw, (S)-8-(2-amino-6-((R)-1-(5-chloro-3′,4′-difluoro-[1,1′-biphenyl]-2-yl)-2,2,2-trifluoroethoxy)pyrimidin-4-yl)-2,8-diazaspiro[4.5]decane-3-carboxylic acid] | > 7.30 | –
15 | Nc1nc(O[C@H](c2ccc(Cl)cc2-c2ccc(C(F)(F)F)c(Cl)c2)C(F)(F)F)cc(N2CCC3(CC2)CN[C@H](C(=O)O)C3)n1 [Example 34ax, (S)-8-(2-amino-6-((R)-1-(3′,5-dichloro-4′-(trifluoromethyl)-[1,1′-biphenyl]-2-yl)-2,2,2-trifluoroethoxy)pyrimidin-4-yl)-2,8-diazaspiro[4.5]decane-3-carboxylic acid] | – | 6.52 to 7.30
16 | Cc1ccc(-c2cc(Cl)ccc2[C@@H](Oc2cc(N3CCC4(CC3)CN[C@H](C(=O)O)C4)nc(N)n2)C(F)(F)F)cc1C [Example 34ay, (S)-8-(2-amino-6-((R)-1-(5-chloro-3′,4′-dimethyl-[1,1′-biphenyl]-2-yl)-2,2,2-trifluoroethoxy)pyrimidin-4-yl)-2,8-diazaspiro[4.5]decane-3-carboxylic acid] | – | 6.52 to 7.30
17 | CCOc1ccc(-c2cc(Cl)ccc2[C@@H](Oc2cc(N3CCC4(CC3)CN[C@H](C(=O)O)C4)nc(N)n2)C(F)(F)F)cc1F [Example 34az, (S)-8-(2-amino-6-((R)-1-(5-chloro-4′-ethoxy-3′-fluoro-[1,1′-biphenyl]-2-yl)-2,2,2-trifluoroethoxy)pyrimidin-4-yl)-2,8-diazaspiro[4.5]decane-3-carboxylic acid] | – | 5.52 to 6.52
18 | Cc1cccc(-c2cc(Cl)ccc2[C@@H](Oc2cc(N3CCC4(CC3)CN[C@H](C(=O)O)C4)nc(N)n2)C(F)(F)F)c1 [Example 34b, (S)-8-(2-amino-6-((R)-1-(5-chloro-3′-methyl-[1,1′-biphenyl]-2-yl)-2,2,2-trifluoroethoxy)pyrimidin-4-yl)-2,8-diazaspiro[4.5]decane-3-carboxylic acid] | > 7.30 | –
19 | Cc1cc(C)cc(-c2cc(Cl)ccc2[C@@H](Oc2cc(N3CCC4(CC3)CN[C@H](C(=O)O)C4)nc(N)n2)C(F)(F)F)c1 [Example 34ba, (S)-8-(2-amino-6-((R)-1-(5-chloro-3′,5′-dimethyl-[1,1′-biphenyl]-2-yl)-2,2,2-trifluoroethoxy)pyrimidin-4-yl)-2,8-diazaspiro[4.5]decane-3-carboxylic acid] | – | > 7.30
20 | Cc1cc(-c2cc(Cl)ccc2[C@@H](Oc2cc(N3CCC4(CC3)CN[C@H](C(=O)O)C4)nc(N)n2)C(F)(F)F)ccc1OC(F)(F)F [Example 34bb, (S)-8-(2-amino-6-((R)-1-(5-chloro-3′-methyl-4′-(trifluoromethoxy)-[1,1′-biphenyl]-2-yl)-2,2,2-trifluoroethoxy)pyrimidin-4-yl)-2,8-diazaspiro[4.5]decane-3-carboxylic acid] | – | 6.52 to 7.30
21 | Cc1cc(-c2cc(Cl)ccc2[C@@H](Oc2cc(N3CCC4(CC3)CN[C@H](C(=O)O)C4)nc(N)n2)C(F)(F)F)cc(C)c1Cl [Example 34bc, (S)-8-(2-amino-6-((R)-1-(4′,5-dichloro-3′,5′-dimethyl-[1,1′-biphenyl]-2-yl)-2,2,2-trifluoroethoxy)pyrimidin-4-yl)-2,8-diazaspiro[4.5]decane-3-carboxylic acid] | – | 6.52 to 7.30
22 | Cc1cc(-c2cc(Cl)ccc2[C@@H](Oc2cc(N3CCC4(CC3)CN[C@H](C(=O)O)C4)nc(N)n2)C(F)(F)F)ccc1F [Example 34bd, (S)-8-(2-amino-6-((R)-1-(5-chloro-4′-fluoro-3′-methyl-[1,1′-biphenyl]-2-yl)-2,2,2-trifluoroethoxy)pyrimidin-4-yl)-2,8-diazaspiro[4.5]decane-3-carboxylic acid] | – | > 7.30
